# Starred links: 1 amine or outer side, 2 acyl side, 3 side chain; linkers in the order of their positions; H or OH if unused. Non-standard residues stand in square brackets, D forms with d. Residues, ends and D or L forms follow the SMILES beside them. Groups on a side chain read outwards from the residue. *: point of attachment. γ‑MTX = gamma-methotrexate, CN(Cc1cnc2nc(N)nc(N)c2n1)c1ccc(C(=O)N[C@@H](CCC(=O)*)C(=O)O)cc1; DAMPA = CN(Cc1cnc2nc(N)nc(N)c2n1)c1ccc(C(=O)*)cc1; Hexanoyl(6-maleimido) = O=C1C=CC(=O)N1CCCCCC(=O)*; γGlu = O=C(O)[C@H](CCC(=O)[*:2])N[*:1]
# Experiments:
# [1] = test system: OVCAR-3 (ovarian carcinoma growing subcutaneously); assay: In vivo tumor-inhibiting properties, OVCAR-3 model; design: species or system nude mice NMRI; conditions: i.v. day 7, 14, 21, 28; dosage [mg/Kg] MTX equivalents: MTX 4 × 100, AW054-EMC 4 × 15, C175 3 × 15
# Method: Animals: nude mice NMRI; tumor model: OVCAR-3 (ovarian carcinoma growing subcutaneously) Therapy: day 7, 14, 21, 28; i. v. (10 mM sodium phosphate/5% D-glucose buffer pH 6.4); dosages relate to methotrexate equivalents.
# [2] = test system: collagen-induced arthritis model; assay: In vivo antirheumatic properties, collagen-induced arthritis model, therapy day 30-48; design: species or system mice (m, DBA/1); conditions: i.v. day 30, 34, 37, 41, 44, 48; dosage [mg/Kg] MTX equivalents: MTX 6 × 35, AW054-EMC 6 × 20
# Method: Animals: mice (m, DBA/1; model: collagen-induced arthritis model) Therapy: day 30, 34, 37, 41, 44, 48; i. v. (10 mM sodium phosphate/5% D-glucose buffer pH 6.4); dosages relate to methotrexate equivalents.
# [3] = OVCAR-3 tumor homogenate (homogenate of a human ovarian xenograft); conditions: human ovarian xenograft (OVCAR-3), 37° C., up to four hours
# human plasma plasmin [4] = assay: human plasma plasmin (370 mU) in buffer (4 mM sodium phosphate, 150 mM NaCl, pH 7.4); conditions: 37° C., up to 20 hours
# human cathepsin B = human cathepsin B (2.1 U) in buffer (50 mM sodium acetate, 100 mM NaCl, 4 mM EDTA*2 Na, 8 mM L-cysteine, pH 5.0); conditions: 37° C., up to 24 hours
# [5] = test system: collagen-induced arthritis model; assay: Collagen-induced arthritis model, therapy twice a week as of day 14, 42 or 30 (Table 1: early treatment protocol); type: in vivo, mice (m, DBA/1); conditions: 35 mg/kg, n = 15, early treatment protocol
# Method: Animals: mice (m, DBA/1; model: collagen-induced arthritis model) Therapy: twice a week as of day 14, 42 and 30, respectively; i. v. (10 mM sodium phosphate/5% D-glucose buffer pH 6.4); dosages relate to methotrexate equivalents.
# [6] = Cleavage experiments of the albumin conjugates, summary of the examples; type: in vitro ADME; conditions: after cleavage of the albumin conjugates
# Method: It becomes evident from the examples that after incubation with human blood plasma, the corresponding albumin conjugate is substantially formed already after 2 min. […] The cleavage results in the formation of e.g. H-Lys(γ-MTX)-OH, which constitutes the only low-molecular cleavage product. […] In the case of the collagen-induced arthritis model, it is about 20% of the corresponding methotrexate equivalent dosage.
# [7] = synovial fluid of six patients suffering from rheumatoid arthritis; conditions: human (patients suffering from rheumatoid arthritis), 37° C., up to four hours
# [8] = type: in vitro ADME, human
# Method: Preparation of the Tumor Homogenate: The Tumor Material is Comminuted by Means of a scalpel, and 200 mg of the mass are homogenized in a shaker with 800 μL buffer (Tris-buffer pH 7.4) with addition of 3-4 glass beads. Subsequently, centrifugation is carried out at 4° C. and the supernatant is aliquoted to 200 μL.
# Now, 100 μL of the solution of the albumin conjugate EMC-D-Ala-Phe-Lys-Lys(γ-MTX)-OH described in Example 4 are diluted with 500 μL of a homogenate solution (homogenate, 1:2 diluted with buffer [4 mM sodium phosphate, 150 mM NaCl, pH 7.4]) and incubated at 37° C. The determination of the cleavage products is performed with the HPLC method described in Example 2 (FIG. 7).
# human plasma plasmin [9] = target: human plasma plasmin (Homo sapiens, UniProt P00747); type: biochemical; conditions: pH 7.4
# Sequence of human plasma plasmin (Homo sapiens, UniProt P00747) (P00747 581-810 limits assumed): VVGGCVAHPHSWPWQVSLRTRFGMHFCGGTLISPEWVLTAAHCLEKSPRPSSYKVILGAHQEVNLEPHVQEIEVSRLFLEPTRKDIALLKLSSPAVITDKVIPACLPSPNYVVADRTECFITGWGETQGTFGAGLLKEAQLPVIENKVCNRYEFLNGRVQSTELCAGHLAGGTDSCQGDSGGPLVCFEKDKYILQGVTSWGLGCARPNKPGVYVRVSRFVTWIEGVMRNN
# Sequence of human plasma plasmin (Homo sapiens, UniProt P00747) (P00747 98-580 partner limits assumed): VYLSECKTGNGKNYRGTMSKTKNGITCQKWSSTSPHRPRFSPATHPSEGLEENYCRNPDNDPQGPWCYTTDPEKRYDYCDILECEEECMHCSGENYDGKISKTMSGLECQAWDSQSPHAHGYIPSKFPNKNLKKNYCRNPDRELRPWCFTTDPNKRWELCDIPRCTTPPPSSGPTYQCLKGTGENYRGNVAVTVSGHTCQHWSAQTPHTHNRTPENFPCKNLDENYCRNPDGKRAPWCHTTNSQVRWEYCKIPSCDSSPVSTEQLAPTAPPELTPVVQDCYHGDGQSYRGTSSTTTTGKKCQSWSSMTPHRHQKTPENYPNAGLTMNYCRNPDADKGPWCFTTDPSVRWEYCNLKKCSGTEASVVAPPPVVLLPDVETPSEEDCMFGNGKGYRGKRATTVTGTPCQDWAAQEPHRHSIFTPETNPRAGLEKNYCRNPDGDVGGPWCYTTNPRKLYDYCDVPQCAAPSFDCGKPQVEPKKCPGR
# Method: Preparation of the albumin conjugate: 4.00 mg of EMC-D-Ala-Phe-Lys-Lys(γ-MTX)-OH are dissolved in 8 mL of a 5% HSA solution (Octopharm) at room temperature and shaken at 37° C. for 2 hours. Subsequently, the sample is brought to a concentration of 700 μM by concentration with Centriprep® disposable concentrators.
# Cleavage by plasmin: Now, 100 μL of the solution of the albumin conjugate are diluted with 500 μL buffer (4 mM sodium phosphate, 150 mM NaCl, pH 7.4), 20 μL of human plasma plasmin (370 mU) are added and the mixture is incubated at 37° C. The determination of the cleavage products is performed with the HPLC method described in Example 2 (FIGS. 3 and 4).
# human blood plasma = conditions: 37° C., up to 24 hours
# HSA = HSA (Homo sapiens, UniProt P02768); assay: Bonding to HSA in human plasma (C18-RP-HPLC)
# Sequence of HSA (P02768 25-609): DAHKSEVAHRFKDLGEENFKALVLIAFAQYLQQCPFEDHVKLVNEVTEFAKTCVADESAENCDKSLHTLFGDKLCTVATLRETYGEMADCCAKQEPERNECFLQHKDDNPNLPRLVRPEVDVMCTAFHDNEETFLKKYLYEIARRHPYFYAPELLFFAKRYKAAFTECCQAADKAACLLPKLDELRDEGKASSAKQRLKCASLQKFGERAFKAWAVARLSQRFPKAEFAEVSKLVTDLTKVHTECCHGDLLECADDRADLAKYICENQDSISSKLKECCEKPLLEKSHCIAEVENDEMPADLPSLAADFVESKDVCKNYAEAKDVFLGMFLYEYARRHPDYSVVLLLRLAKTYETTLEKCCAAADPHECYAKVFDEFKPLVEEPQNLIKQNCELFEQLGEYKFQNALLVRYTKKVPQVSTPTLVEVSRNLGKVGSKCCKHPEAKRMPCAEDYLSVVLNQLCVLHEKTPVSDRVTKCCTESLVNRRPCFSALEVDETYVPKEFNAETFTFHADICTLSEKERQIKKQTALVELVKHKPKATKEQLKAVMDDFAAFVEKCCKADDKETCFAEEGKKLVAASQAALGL
molecule,measurement,setting,value
"C[C@@H](NC(=O)CCCCCN1C(=O)C=CC1=O)C(=O)N[C@@H](Cc1ccccc1)C(=O)N[C@@H](CCCCN)C(=O)N[C@@H](CCCCNC(=O)CC[C@H](NC(=O)c1ccc(N(C)Cc2cnc3nc(N)nc(N)c3n2)cc1)C(=O)O)C(=O)O [AW054-EMC, EMC-D-Ala-Phe-Lys-Lys(γ-MTX)-OH] ({Hexanoyl(6-maleimido)}-[dA]FKK([γGlu-DAMPA])-OH)",change of body weight [%],[1],+12%
same,change of body weight [%],[2],−0.2%
HSA-EMC-D-Ala-Phe-Lys-Lys(γ-MTX)-OH,fragment found,[3],"H-Lys(γ-MTX)-OH, four hours"
same,cleaved bond,human plasma plasmin [4],"Lys-Lys, one and four hours, respectively"
same,cleaved bond,human cathepsin B,"Lys-Lys, one and four hours, respectively"
"CN(Cc1cnc2nc(N)nc(N)c2n1)c1ccc(C(=O)N[C@@H](CCC(=O)O)C(=O)O)cc1 [MTX, Methotrexate]",T/C [%] maximum,[1],69%
same,change of body weight [%],[1],+19%
same,RA score Tag 55,[2],8.30
same,change of body weight [%],[2],+6.9%
same,"improved or achieved abatement after created disease, figure in parentheses (share of animals)",[5],(53)
same,"improved or achieved abatement after created disease, number of animals",[5],8
same,mean arthritis score at the end of the test,[5],3.1
same,mean period of time until breakout of renewed arthritis after beginning of treatment,[5],17.3 days
same,occurrence of arthritis at the end of the test (%),[5],(60) %
same,"occurrence of arthritis at the end of the test, number of animals",[5],9
CN(Cc1cnc2nc(N)nc(N)c2n1)c1ccc(C(=O)NC(CCC(=O)NCCCCC(N)C(=O)O)C(=O)O)cc1 (centres unmarked) [H-Lys(γ-MTX)-OH],further cleavage of the cleavage product into MTX and lysine,[6],not cleaved into MTX and lysine any more
EMC-Arg-Ala-Phe-Met-Lys(γ-MTX)-OH,fragment found,[7],"H-Lys(γ-MTX)-OH, four hours"
HSA-EMC-D-Ala-Phe-Lys-Lys(γ-MTX)-OH ({HSA-Hexanoyl(6-maleimido)}-[dA]FKK(γ‑MTX)-OH),cleavage in OVCAR-3 tumor homogenate,[8],formation of H-Lys(γ-MTX)-OH as a cleavage product can be observed
same,cleavage by plasmin,human plasma plasmin [9],formation of H-Lys(γ-MTX)-OH as a cleavage product
EMC-D-Ala-Phe-Lys-Lys(γ-MTX)-OH ({Hexanoyl(6-maleimido)}-[dA]FKK([γGlu-DAMPA])-OH; SMILES C[C@@H](NC(=O)CCCCCN1C(=O)C=CC1=O)C(=O)N[C@@H](Cc1ccccc1)C(=O)N[C@@H](CCCCN)C(=O)N[C@@H](CCCCNC(=O)CC[C@H](NC(=O)c1ccc(N(C)Cc2cnc3nc(N)nc(N)c3n2)cc1)C(=O)O)C(=O)O),not cleaved,human blood plasma,loss of MTX is less than 10% after 24 hours
"CSCC[C@H](NC(=O)[C@H](C)NC(=O)[C@H](CCCNC(=N)N)NC(=O)[C@H](CCCNC(=N)N)NC(=O)CCCCCN1C(=O)C=CC1=O)C(=O)N[C@@H](CCCCNC(=O)CC[C@H](NC(=O)c1ccc(N(C)Cc2cnc3nc(N)nc(N)c3n2)cc1)C(=O)O)C(=O)O [C175, EMC-Arg-Arg-Ala-Met-Lys(γ-MTX)-OH] ({Hexanoyl(6-maleimido)}-RRAMK([γGlu-DAMPA])-OH)",change of body weight [%],[1],+7%
"CSCC[C@H](NC(=O)[C@H](Cc1ccccc1)NC(=O)[C@H](C)NC(=O)[C@H](CCCNC(=N)N)NC(=O)CCCCCN1C(=O)C=CC1=O)C(=O)N[C@@H](CCCCNC(=O)CC[C@H](NC(=O)c1ccc(N(C)Cc2cnc3nc(N)nc(N)c3n2)cc1)C(=O)O)C(=O)O [C162, EMC-Arg-Ala-Phe-Met-Lys(γ-MTX)-OH] ({Hexanoyl(6-maleimido)}-RAFMK([γGlu-DAMPA])-OH)",bonding of the prodrug to HSA (albumin) in human plasma,"HSA; 200 μM, 2 min incubation with human blood plasma at 37° C., HPLC detection at 300 or 370 nm",almost complete decrease of the prodrug peak
same,bonding of the prodrug to albumin in plasma with blocked cysteine-34-group,"HSA; human blood plasma incubated with EMC (1000 μM) in advance, detection 370 nm",does not show a bonding of the prodrug to albumin
